Experimental data reported in patent publication US20170246176A1, “PHACOSCLEROSIS INHIBITOR” (KEIO UNIVERSITY, priority 2014, published 2017).

Experiments:
[1] = system: hardening of crystalline lens due to exposure to mainstream smoke in rat; assay: Measurement of crystalline lens hardness after smoking treatment; assay type: in vivo, Sprague-Dawley (SD) rats; conditions: male SD rats, smoking treatment 12 days; instillation 5 μL per eye, once before and 3 times after smoking treatment; 0.1% tiopronin or 0.005% pirenoxine (Catalin); Dunnett method, p<0.01
Description: (§1) Male 6-8-week-old Sprague-Dawley (SD) rats were divided into 4 groups, each group with 4 rats, and they were used as a nonsmoking treatment group (NT), a smoking treatment group (Smoking), a smoking treatment+0.1% tiopronin instillation group (S+0.1% Tiopronin), and a smoking treatment +0.005% pirenoxine instillation group (S+Catalin).
Tiopronin (Thiola Tab. 100, manufactured by Mylan EPD) was prepared to provide an active ingredient amount of 0.1 w/v %, whereby an ophthalmic solution was produced. Catalin For Ophthalmic 0.005% (manufactured by Senju Pharmaceutical Co., Ltd.) was used for the 0.005% pirenoxine instillation group. Each eye was instilled with 5 μL per instillation. […]
The smoking treatment was performed as follows by reference to the method of Higuchi et al. (Free Radic. Biol. Med., 2011, Vol. 51, pages 2210-2216). […] The body weight of the rats that underwent the smoking treatment for 12 days and the nonsmoking group was measured, and cornea, lacrimal gland, crystalline lens were harvested. […] Of the rats that underwent the smoking treatment, the instillation group (S+Tiopronin, S+Catalin) and the noninstillation group (Smoking) were compared for the fluorescence score.
The crystalline lens isolated from the eyeball in Example 1 was measured for the crystalline lens hardness by the following method. […]

[2] = system: cornea state of the rat exposed to mainstream smoke; assay: Fluorescent staining of cornea after smoking treatment by exposure to mainstream smoke; assay type: in vivo, Sprague-Dawley (SD) rats; conditions: male SD rats, smoking treatment 12 days, instillation 5 μL per eye, once before and 3 times after smoking treatment, 0.1% tiopronin or 0.005% pirenoxine (Catalin)
Description: as §1
Tiopronin (Thiola Tab. 100, manufactured by Mylan EPD) was prepared to provide an active ingredient amount of 0.1 w/v %, whereby an ophthalmic solution was produced. Catalin For Ophthalmic 0.005% (manufactured by Senju Pharmaceutical Co., Ltd.) was used for the 0.005% pirenoxine instillation group. Each eye was instilled with 5 μL per instillation. Instillation was performed for 12 days, once before the following smoking treatment and 3 times after the treatment.
The smoking treatment was performed as follows by reference to the method of Higuchi et al. (Free Radic. Biol. Med., 2011, Vol. 51, pages 2210-2216). Rats were placed in a smoking chamber and 300 mL of mainstream smoke was added into the chamber with a syringe. Male 6-8-week-old SD rats (maximum 12 rats) were placed in a smoking chamber (60 cm×40 cm×35 cm) produced for the experiment, and fresh air was supplied into the chamber with an air pump. Tobacco (Seven Star. (registered trade mark)) was set on a 50 mL syringe, and the mainstream smoke was sucked and blown into the chamber. This suction operation was repeated 6 times, a total 300 mL of the mainstream smoke was added into the chamber, and the rats were left standing for 30 min while delivering fresh air by the pump. A similar operation was repeated 5 times more (total 6 times), thereby exposing the rats to the mainstream smoke for 3 hr in total per day. […] The body weight of the rats that underwent the smoking treatment for 12 days and the nonsmoking group was measured, and cornea, lacrimal gland, crystalline lens were harvested. […] Of the rats that underwent the smoking treatment, the instillation group (S+Tiopronin, S+Catalin) and the noninstillation group (Smoking) were compared for the fluorescence score.

| SMILES | hardness of the crystalline lens (weight divided by distance), vs smoking treatment group [1] | fluorescent staining score of cornea (corneal state), instillation group vs noninstillation smoking group [2] | fluorescent staining score of cornea (corneal state), instillation group vs noninstillation smoking group ([2]; listed as Catalin) |
| --- | --- | --- | --- |
| O=C(O)c1cc(O)c2c3nc4ccccc4oc-3cc(=O)c2n1 [pirenoxine, 1-hydroxy-5-oxo-5H-pyrido[3,2-α]phenoxazine-3-carboxylic acid] | an increase in the hardness was significantly suppressed | showed a tendency toward improvement | exacerbation of the corneal state due to instillation was not found |
| CC(S)C(=O)NCC(=O)O (centres unmarked) [tiopronin, N-(2-mercaptopropionyl)glycine] | an increase in the hardness was significantly suppressed | exacerbation of the corneal state due to instillation was not found |  |
